Test results as given in patent US20240425479A1, “HALO-SUBSTITUTED AMINO AZA-HETEROARYL COMPOUNDS AS INHIBITORS OF THE HAEMATOPOIETIC PROGENITOR KINASE 1 (HPK1)” (priority 2021, published 2024).

Target: T1, Recombinant (1-346) HPK1 (h) (Homo sapiens, UniProt Q92918)
T1 construct: Recombinant (1-346) HPK1 (h) is incubated with 8 mM MOPS pH 7.0
T1 sequence (Q92918 1-346): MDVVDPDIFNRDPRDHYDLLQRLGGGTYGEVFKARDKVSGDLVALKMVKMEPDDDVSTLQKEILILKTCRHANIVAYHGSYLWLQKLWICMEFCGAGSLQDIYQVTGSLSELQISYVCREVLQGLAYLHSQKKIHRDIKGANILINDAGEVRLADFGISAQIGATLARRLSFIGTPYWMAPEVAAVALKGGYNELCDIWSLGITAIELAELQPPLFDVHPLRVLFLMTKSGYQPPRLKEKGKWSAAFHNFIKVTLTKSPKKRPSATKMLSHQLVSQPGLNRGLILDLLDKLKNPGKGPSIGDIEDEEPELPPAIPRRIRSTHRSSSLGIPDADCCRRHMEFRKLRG
Test: HPK1 human STE kinase enzymatic radiometric assay
Format: biochemical
Settings: read-out: HPK1 IC50 nM Range
Summary of the method: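 Recombinant HPK1 (1-346) incubated 40 min at RT with 0.33 mg/mL myelin basic protein and [gamma-33P]-ATP in 8 mM MOPS pH 7.0, 0.2 mM EDTA, 10 mM Mg acetate; reaction started with Mg/ATP. Stopped with 0.5% phosphoric acid, spotted on P30 filtermat, washed, scintillation counted. Compounds tested as 9-point 3-fold dilutions.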

Structure (SMILES): Cc1cc2cc(-c3nc(-c4ccc(C5CCOCC5)c(CN(C)C)c4)c(F)nc3N)c(F)cc2c(=O)[nH]1 [Example I-184, 6-(3-amino-6-(3-((dimethylamino)methyl)-4-(tetrahydro-2H-pyran-4-yl)phenyl)-5-fluoropyrazin-2-yl)-7-fluoro-3-methylisoquinolin-1(2H)-one]
- IC50: 0.1 to 10 nM

Structure (SMILES): Nc1nc(F)c(-c2ccc(N3CCOCC3)c(CN3CCCCC3)c2)nc1-c1ccc2c(c1)CCNC2=O [Example I-185, 6-(3-amino-5-fluoro-6-(4-morpholino-3-(piperidin-1-ylmethyl)phenyl)pyrazin-2-yl)-3,4-dihydroisoquinolin-1(2H)-one]
- IC50: 11 to 100 nM

Structure (SMILES): Nc1nc(F)c(-c2ccc(N3CCOCC3)c(CN3CCCCC3)c2)nc1-c1cc2c(cc1F)C(=O)NCC2 [Example I-186, 6-(3-amino-5-fluoro-6-(4-morpholino-3-(piperidin-1-ylmethyl)phenyl)pyrazin-2-yl)-7-fluoro-3,4-dihydroisoquinolin-1(2H)-one]
- IC50: 11 to 100 nM

Structure (SMILES): Nc1nc(F)c(-c2ccc(N3CCOCC3)c(CN3CCCCC3)c2)nc1-c1cc(F)c2c(c1)CCNC2=O [Example I-187, 6-(3-amino-5-fluoro-6-(4-morpholino-3-(piperidin-1-ylmethyl)phenyl)pyrazin-2-yl)-8-fluoro-3,4-dihydroisoquinolin-1(2H)-one]
- IC50: 11 to 100 nM

Structure (SMILES): COC1CN(Cc2cc(-c3nc(-c4ccc5c(c4)CCNC5=O)c(N)nc3F)ccc2N2CCOCC2)C1 [Example I-188, 6-(3-amino-5-fluoro-6-(3-((3-methoxyazetidin-1-yl)methyl)-4-morpholinophenyl)pyrazin-2-yl)-3,4-dihydroisoquinolin-1(2H)-one]
- IC50: 0.1 to 10 nM

Structure (SMILES): COC1CN(Cc2cc(-c3nc(-c4cc5c(cc4F)C(=O)NCC5)c(N)nc3F)ccc2N2CCOCC2)C1 [Example I-189, 6-(3-amino-5-fluoro-6-(3-((3-methoxyazetidin-1-yl)methyl)-4-morpholinophenyl)pyrazin-2-yl)-7-fluoro-3,4-dihydroisoquinolin-1(2H)-one]
- IC50: 0.1 to 10 nM

Structure (SMILES): COC1CN(Cc2cc(-c3nc(-c4cc5c(cc4F)C(=O)NCC5)c(N)nc3F)ccc2C2CCOCC2)C1 [Example I-190, 6-(3-amino-5-fluoro-6-(3-((3-methoxyazetidin-1-yl)methyl)-4-(tetrahydro-2H-pyran-4-yl)phenyl)pyrazin-2-yl)-7-fluoro-3,4-dihydroisoquinolin-1(2H)-one]
- IC50: 0.1 to 10 nM

Structure (SMILES): COC1CN(Cc2cc(-c3nc(-c4cc(F)c5c(c4)CCNC5=O)c(N)nc3F)ccc2C2CCOCC2)C1 [Example I-191, 6-(3-amino-5-fluoro-6-(3-((3-methoxyazetidin-1-yl)methyl)-4-(tetrahydro-2H-pyran-4-yl)phenyl)pyrazin-2-yl)-8-fluoro-3,4-dihydroisoquinolin-1(2H)-one]
- IC50: 0.1 to 10 nM

Structure (SMILES): COC1CN(Cc2cc(-c3nc(-c4cc(F)c5c(c4)CCNC5=O)c(N)nc3F)ccc2N2CCOCC2)C1 [Example I-192, 6-(3-amino-5-fluoro-6-(3-((3-methoxyazetidin-1-yl)methyl)-4-morpholinophenyl)pyrazin-2-yl)-8-fluoro-3,4-dihydroisoquinolin-1(2H)-one]
- IC50: 0.1 to 10 nM

Structure (SMILES): COC1CN(Cc2cc(-c3nc(-c4ccc5c(c4)CCNC5=O)c(N)nc3F)ccc2C2CCOCC2)C1 [Example I-193, 6-(3-amino-5-fluoro-6-(3-((3-methoxyazetidin-1-yl)methyl)-4-(tetrahydro-2H-pyran-4-yl)phenyl)pyrazin-2-yl)-3,4-dihydroisoquinolin-1(2H)-one]
- IC50: 0.1 to 10 nM

Structure (SMILES): Cc1nc2cc(-c3nc(-c4ccc(N5C[C@@H](C)O[C@@H](C)C5)c(CN(C)C)c4)c(F)nc3N)ccc2c(=O)[nH]1 [Example I-194, 7-(3-amino-6-(3-((dimethylamino)methyl)-4-((2R,6S)-2,6-dimethylmorpholino)phenyl)-5-fluoropyrazin-2-yl)-2-methylquinazolin-4(3H)-one]
- IC50: 11 to 100 nM

Structure (SMILES): CC1NC(=O)c2c(F)cc(-c3nc(-c4ccc([C@]56C[C@H]5CN(C5CCC5)C6)cc4)c(F)nc3N)cc2C1(F)F (stereo partly drawn) [Example I-195, 6-(3-amino-6-(4-((1S,5R)-3-cyclobutyl-3-azabicyclo[3.1.0]hexan-1-yl)phenyl)-5-fluoropyrazin-2-yl)-4,4,8-trifluoro-3-methyl-3,4-dihydroisoquinolin-1(2H)-one]
- IC50: 11 to 100 nM

Structure (SMILES): Cc1nc2cc(-c3nc(-c4ccc(N5C[C@@H](C)O[C@@H](C)C5)c(CN(C)C)c4)c(F)nc3N)cc(F)c2c(=O)[nH]1 [Example I-196, 7-(3-amino-6-(3-((dimethylamino)methyl)-4-((2R,6S)-2,6-dimethylmorpholino)phenyl)-5-fluoropyrazin-2-yl)-5-fluoro-2-methylquinazolin-4(3H)-one]
- IC50: 11 to 100 nM

Structure (SMILES): C[C@@H]1CN(c2ccc(-c3nc(-c4cc(F)c5c(c4)CCNC5=O)c(N)nc3F)cc2CN(C)C)C[C@H](C)O1 [Example I-197, 6-(3-amino-6-(3-((dimethylamino)methyl)-4-((2R,6S)-2,6-dimethylmorpholino)phenyl)-5-fluoropyrazin-2-yl)-8-fluoro-3,4-dihydroisoquinolin-1(2H)-one]
- IC50: 0.1 to 10 nM

Structure (SMILES): C[C@@H]1CN(c2ccc(-c3nc(-c4ccc5c(c4)CCNC5=O)c(N)nc3F)cc2CN(C)C)C[C@H](C)O1 [Example I-198, 6-(3-amino-6-(3-((dimethylamino)methyl)-4-((2R,6S)-2,6-dimethylmorpholino)phenyl)-5-fluoropyrazin-2-yl)-3,4-dihydroisoquinolin-1(2H)-one]
- IC50: 0.1 to 10 nM

Structure (SMILES): Nc1nc(F)c(-c2ccc(N3CCOCC3)c(CN3CCC3)c2)nc1-c1ccc2c(=O)[nH]cc(F)c2c1 [Example I-199, 6-(3-amino-6-(3-(azetidin-1-ylmethyl)-4-morpholinophenyl)-5-fluoropyrazin-2-yl)-4-fluoroisoquinolin-1(2H)-one]
- IC50: 0.1 to 10 nM

Structure (SMILES): Nc1nc(F)c(-c2ccc(N3CCOCC3)c(CN3CCCC3)c2)nc1-c1ccc2c(=O)[nH]cc(F)c2c1 [Example I-200, 6-(3-amino-5-fluoro-6-(4-morpholino-3-(pyrrolidin-1-ylmethyl)phenyl)pyrazin-2-yl)-4-fluoroisoquinolin-1(2H)-one]
- IC50: 0.1 to 10 nM

Structure (SMILES): Nc1nc(F)c(-c2ccc(N3CCOCC3)cn2)nc1-c1ccc2c(c1)CCNC2=O [Example I-201, 6-(3-amino-5-fluoro-6-(5-morpholinopyridin-2-yl)pyrazin-2-yl)-3,4-dihydroisoquinolin-1(2H)-one]
- IC50: 11 to 100 nM

Structure (SMILES): Cc1c[nH]c(=O)c2ccc(-c3nc(-c4ccc(N5CCOCC5)c(CN5CCC5)c4)c(F)nc3N)cc12 [Example I-202, 6-(3-amino-6-(3-(azetidin-1-ylmethyl)-4-morpholinophenyl)-5-fluoropyrazin-2-yl)-4-methylisoquinolin-1(2H)-one]
- IC50: 0.1 to 10 nM

Structure (SMILES): Cc1c[nH]c(=O)c2ccc(-c3nc(-c4ccc(N5CCOCC5)c(CN5CCCC5)c4)c(F)nc3N)cc12 [Example I-203, 6-(3-amino-5-fluoro-6-(4-morpholino-3-(pyrrolidin-1-ylmethyl)phenyl)pyrazin-2-yl)-4-methylisoquinolin-1(2H)-one]
- IC50: 0.1 to 10 nM

Structure (SMILES): Nc1nc(F)c(-c2ccc(C3CCOCC3)c(CN3CCC3)c2)nc1-c1ccc2c(=O)[nH]cc(F)c2c1 [Example I-204, 6-(3-amino-6-(3-(azetidin-1-ylmethyl)-4-(tetrahydro-2H-pyran-4-yl)phenyl)-5-fluoropyrazin-2-yl)-4-fluoroisoquinolin-1(2H)-one]
- IC50: 0.1 to 10 nM
